In this assay the target is T1, Recombinant human α-L-iduronidase protein (Homo sapiens, UniProt P35475).
T1 construct: purchased R&D
T1 sequence (P35475 28-653): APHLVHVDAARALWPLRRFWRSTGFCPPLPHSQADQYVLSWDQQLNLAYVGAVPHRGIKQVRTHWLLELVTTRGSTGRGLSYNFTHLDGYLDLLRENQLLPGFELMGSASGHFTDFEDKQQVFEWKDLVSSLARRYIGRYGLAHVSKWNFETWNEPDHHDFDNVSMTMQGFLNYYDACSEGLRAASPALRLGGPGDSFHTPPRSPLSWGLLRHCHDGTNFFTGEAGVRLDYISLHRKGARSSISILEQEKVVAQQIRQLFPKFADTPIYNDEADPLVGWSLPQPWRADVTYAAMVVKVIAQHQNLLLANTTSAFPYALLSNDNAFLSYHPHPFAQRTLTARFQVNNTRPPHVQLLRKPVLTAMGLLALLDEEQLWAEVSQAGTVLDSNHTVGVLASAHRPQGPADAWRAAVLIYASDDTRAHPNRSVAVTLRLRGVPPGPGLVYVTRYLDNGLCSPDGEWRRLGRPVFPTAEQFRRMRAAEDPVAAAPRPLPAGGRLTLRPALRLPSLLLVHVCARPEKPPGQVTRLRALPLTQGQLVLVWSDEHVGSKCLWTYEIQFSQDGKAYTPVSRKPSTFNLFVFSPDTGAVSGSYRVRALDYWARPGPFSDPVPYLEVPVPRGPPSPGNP
As to the kind of experiment: Differential scanning fluorimetry (DSF) thermal stabilization.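 Note: Classes count stabilization of α-L-iduronidase despite the GALC label.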 It is filed as binding. Conditions: ΔTm class. Here is the method:
The capacity of Compounds of the Disclosure to stabilize α-L-iduronidase was assessed by differential scanning fluorimetry technique. The thermal denaturation of purified human native enzyme was monitored in the presence of the extrinsic fluorescent probe SYPRO Orange (Sigma-Aldrich, St. Louis, MO). The tested compounds were dissolved in 100% DMSO and diluted into the protein buffer to achieve final concentrations of 1% DMSO.
Recombinant human α-L-iduronidase protein (purchased from R&D) 12.5 µL of 1.5 µM in 100 mM Hepes 20 mM MgCl2 pH 7 (protein final concentration 0.75 µM) with Sypro Orange 10X and 12.5 µl of the different compound solutions were dispensed into 96-well PCR-plates. The intensity of SYPRO Orange fluorescence after a systematic increase of temperature was monitored in the Roche LightCycler® 480 II device (Roche Diagnostics).
The capacity to stabilize α-L-iduronidase is denoted as follows: • ΔTm GALC > 1 is shown as A; • ΔTm GALC between 0.5 and 1 is shown as B; • ΔTm GALC between 0.1 and 0.5 is shown as C; and • ΔTm GALC less than 0.1 is shown as D.

Setting [1] is: commercially available Examples 8-37.

The structures appear in SMILES notation.

Take `CCN(C(=O)CN(C)Cc1nc2ccccc2c(=O)[nH]1)c1cccc2ccccc12` [Example 28, N-ethyl-2-(methyl((4-oxo-3,4-dihydroquinazolin-2-yl)methyl)amino)-N-(naphthalen-1-yl)acetamide]: the “DSF Activity range” value under setting [1] was “B (ΔTm GALC between 0.5 and 1 is shown as B)”.
For the compound `CN(CC(=O)N1CCCc2ccccc21)Cc1nc2ccccc2c(=O)[nH]1` [Example 29, 2-(((2-(3,4-dihydroquinolin-1(2H)-yl)-2-oxoethyl)(methyl)amino)methyl)quinazolin-4(3H)-one], the “DSF Activity range” value under setting [1] was “B (ΔTm GALC between 0.5 and 1 is shown as B)”.
On the same count and under the same terms, the same measure for `CN(CC(=O)Nc1ccc(Cl)c(Cl)c1)Cc1nc2c(cnn2C)c(=O)[nH]1` [Example 30, N-(3,4-dichlorophenyl)-2-(methyl((1-methyl-4-oxo-4,5-dihydro-1H-pyrazolo[3,4-d]pyrimidin-6-yl)methyl)amino)acetamide]: “B (ΔTm GALC between 0.5 and 1 is shown as B)”; for `Cc1ccc(NC(=O)CN(C)Cc2nc3c(cnn3C)c(=O)[nH]2)cc1` [Example 31, 2-(methyl((1-methyl-4-oxo-4,5-dihydro-1H-pyrazolo[3,4-d]pyrimidin-6-yl)methyl)amino)-N-(p-tolyl)acetamide]: “C (ΔTm GALC between 0.1 and 0.5 is shown as C)”; for `CN(CC(=O)Nc1cccc(F)c1)Cc1nc2c(cnn2C)c(=O)[nH]1` [Example 32, N-(3-fluorophenyl)-2-(methyl((1-methyl-4-oxo-4,5-dihydro-1H-pyrazolo[3,4-d]pyrimidin-6-yl)methyl)amino)acetamide]: “D (ΔTm GALC less than 0.1 is shown as D)”.
On the same count and under the same terms, the same measure for `CN(CC(=O)Nc1ccccc1)Cc1nc2c(cnn2C)c(=O)[nH]1` [Example 33, 2-(methyl((1-methyl-4-oxo-4,5-dihydro-1H-pyrazolo[3,4-d]pyrimidin-6-yl)methyl)amino)-N-phenylacetamide]: “C (ΔTm GALC between 0.1 and 0.5 is shown as C)”; for `COCCNC(=O)CN(C)Cc1nc2c(cnn2C)c(=O)[nH]1` [Example 34, N-(2-methoxyethyl)-2-(methyl((1-methyl-4-oxo-4,5-dihydro-1H-pyrazolo[3,4-d]pyrimidin-6-yl)methyl)amino)acetamide]: “D (ΔTm GALC less than 0.1 is shown as D)”.
The same measure, in the same setting: the same measure for `CN(CC(=O)N1CCCC1)Cc1nc2c(cnn2C)c(=O)[nH]1` [Example 35, 1-methyl-6-((methyl(2-oxo-2-(pyrrolidin-1-yl)ethyl)amino)methyl)-1,5-dihydro-4H-pyrazolo[3,4-d]pyrimidin-4-one]: “B (ΔTm GALC between 0.5 and 1 is shown as B)”; for `CN(CC(=O)N(C)C)Cc1nc2c(cnn2C)c(=O)[nH]1` [Example 36, N,N-dimethyl-2-(methyl((1-methyl-4-oxo-4,5-dihydro-1H-pyrazolo[3,4-d]pyrimidin-6-yl)methyl)amino)acetamide]: “B (ΔTm GALC between 0.5 and 1 is shown as B)”; for `CN(CC(=O)N(C)C1CCCCC1)Cc1nc2c(cnn2C)c(=O)[nH]1` [Example 37, N-cyclohexyl-N-methyl-2-(methyl((1-methyl-4-oxo-4,5-dihydro-1H-pyrazolo[3,4-d]pyrimidin-6-yl)methyl)amino)acetamide]: “B (ΔTm GALC between 0.5 and 1 is shown as B)”.
As for `Cc1csc2c(=O)[nH]c(CN(C)CC(=O)N3Cc4ccccc4C3)nc12` [Example 38], the “DSF Activity range” value (synthetized Examples 38-94) was “B (ΔTm GALC between 0.5 and 1 is shown as B)”.
The same measure, in the same setting: with `Cc1csc2c(=O)[nH]c(CN(C)CC(=O)N(C)c3ccccc3Cl)nc12` [Example 41] the entry was “C (ΔTm GALC between 0.1 and 0.5 is shown as C)”; with `CCN(CC(=O)N(C)c1ccccc1Cl)Cc1nc2c(C)csc2c(=O)[nH]1` [Example 42], “C (ΔTm GALC between 0.1 and 0.5 is shown as C)”; with `Cc1csc2c(=O)[nH]c(CN(CC(=O)N(C)c3ccccc3Cl)C3CC3)nc12` [Example 43], “D (ΔTm GALC less than 0.1 is shown as D)”.
Same read-out and setting: the same measure for `CCCN(CC(=O)N(C)c1ccccc1Cl)Cc1nc2c(C)csc2c(=O)[nH]1` [Example 44]: “B (ΔTm GALC between 0.5 and 1 is shown as B)”.
The same measure, in the same setting: with `Cc1cc2nc(CN(C)CC(=O)N(C)c3ccccc3Cl)[nH]c(=O)c2s1` [Example 45] the entry was “B (ΔTm GALC between 0.5 and 1 is shown as B)”; with `CCN(CC(=O)N(C)c1ccccc1Cl)Cc1nc2cc(C)sc2c(=O)[nH]1` [Example 46], “B (ΔTm GALC between 0.5 and 1 is shown as B)”.
Consider `Cc1cc2nc(CN(CC(=O)N(C)c3ccccc3Cl)C3CC3)[nH]c(=O)c2s1` [Example 47], for which the “DSF Activity range” value (synthetized Examples 38-94) is “D (ΔTm GALC less than 0.1 is shown as D)”.
As for `Cc1csc(N(C)C(=O)CN(C)Cc2nc3c(C)csc3c(=O)[nH]2)n1` [Example 48, N-methyl-2-(methyl((7-methyl-4-oxo-3,4-dihydrothieno[3,2-d]pyrimidin-2-yl)methyl)amino)-N-(4-methylthiazol-2-yl)acetamide], the “DSF Activity range” value (synthetized Examples 38-94) is “C (ΔTm GALC between 0.1 and 0.5 is shown as C)”.
For the compound `CCN(CC(=O)N(C)c1c(Cl)cccc1Cl)Cc1nc2c(C)csc2c(=O)[nH]1` [Example 49, N-(2,6-dichlorophenyl)-2-(ethyl((7-methyl-4-oxo-3,4-dihydrothieno[3,2-d]pyrimidin-2-yl)methyl)amino)-N-methylacetamide], the “DSF Activity range” value (synthetized Examples 38-94) was “C (ΔTm GALC between 0.1 and 0.5 is shown as C)”.
The same measure, in the same setting: with `Cc1csc2c(=O)[nH]c(CN(C)CC(=O)N(C)c3cccc(F)c3)nc12` [Example 50] the entry was “B (ΔTm GALC between 0.5 and 1 is shown as B)”; with `Cc1cc2nc(CN(C)CC(=O)N(C)c3cccc(F)c3)[nH]c(=O)c2s1` [Example 51], “C (ΔTm GALC between 0.1 and 0.5 is shown as C)”; with `Cc1cc2nc(CN(C)CC(=O)N3CCc4ccccc43)[nH]c(=O)c2s1` [Example 52], “B (ΔTm GALC between 0.5 and 1 is shown as B)”.
Same read-out and setting: the same measure for `Cc1cc2nc(CN(C)CC(=O)N3Cc4ccccc4C3)[nH]c(=O)c2s1` [Example 53]: “B (ΔTm GALC between 0.5 and 1 is shown as B)”; for `Cc1cc2nc(CN(C)CC(=O)N(C)c3ccc(Cl)c(Cl)c3)[nH]c(=O)c2s1` [Example 55, N-(3,4-dichlorophenyl)-N-methyl-2-(methyl((6-methyl-4-oxo-3,4-dihydrothieno[3,2-d]pyrimidin-2-yl)methyl)amino)acetamide]: “C (ΔTm GALC between 0.1 and 0.5 is shown as C)”.
As for `CN(CC(=O)N1Cc2ccccc2C1)Cc1nc2ccc(F)cc2c(=O)[nH]1` [Example 56, 6-fluoro-2-(((2-(isoindolin-2-yl)-2-oxoethyl)(methyl)amino)methyl)quinazolin-4(3H)-one], the “DSF Activity range” value (synthetized Examples 38-94) is “A (ΔTm GALC > 1 is shown as A)”.
The same measure, in the same setting: with `CN(CC(=O)N1CCc2ccccc21)Cc1nc2ccc(F)cc2c(=O)[nH]1` [Example 57, 6-fluoro-2-(((2-(indolin-1-yl)-2-oxoethyl)(methyl)amino)methyl)quinazolin-4(3H)-one] the entry was “B (ΔTm GALC between 0.5 and 1 is shown as B)”.
Consider `CN(CC(=O)N(C)c1ccc(Cl)c(Cl)c1)Cc1nc2ccc(F)cc2c(=O)[nH]1` [Example 58, N-(3,4-dichlorophenyl)-2-(((6-fluoro-4-oxo-3,4-dihydroquinazolin-2-yl)methyl)(methyl)amino)-N-methylacetamide], for which the “DSF Activity range” value (synthetized Examples 38-94) is “B (ΔTm GALC between 0.5 and 1 is shown as B)”.
On the same count and under the same terms, the same measure for `CN(CC(=O)N(C)c1ccccc1Cl)Cc1nc2ccc(F)cc2c(=O)[nH]1` [Example 59]: “B (ΔTm GALC between 0.5 and 1 is shown as B)”.
The same measure, in the same setting: with `CCN(CC(=O)N(C)c1ccccc1Cl)Cc1nc2ccc(F)cc2c(=O)[nH]1` [Example 60] the entry was “B (ΔTm GALC between 0.5 and 1 is shown as B)”; with `CN(C(=O)CN(Cc1nc2ccc(F)cc2c(=O)[nH]1)C1CC1)c1ccccc1Cl` [Example 61], “D (ΔTm GALC less than 0.1 is shown as D)”.
The same measure, in the same setting: the same measure for `CCCN(CC(=O)N(C)c1ccccc1Cl)Cc1nc2ccc(F)cc2c(=O)[nH]1` [Example 62]: “B (ΔTm GALC between 0.5 and 1 is shown as B)”; for `CN(CC(=O)N(C)c1ccccc1Cl)Cc1nc2cc(F)ccc2c(=O)[nH]1` [Example 63]: “B (ΔTm GALC between 0.5 and 1 is shown as B)”; for `CCN(CC(=O)N(C)c1ccccc1Cl)Cc1nc2cc(F)ccc2c(=O)[nH]1.Cl` [Example 64]: “B (ΔTm GALC between 0.5 and 1 is shown as B)”.

(Values after patent publication US20230140216A1, “COMBINATION THERAPY FOR TREATING MPS1” (GAIN THERAPEUTICS SA, priority 2020, published 2023).)
